According to patent US7592000B2, “Method of tanning human body by mysting or immersion at elevated temperature” (Merck Patent GmbH, priority 2004, dated 2009):

Tests used:
[1] = monomer/dimer equilibrium of DHA dissolved in water; format: physicochemical; conditions: DHA solutions at 30-50° C. versus 20° C.
Text: It is assumed that the effect, advantageous according to the invention, of the improved tanning effect at elevated temperatures in the case of 1,3-dihydroxyacetone is connected with the following mechanism. As a raw material, DHA is in the form of a powder and consists of dimers. Dissolved in water, some of the dimers convert to the active monomeric form, which brings about the tanning reaction. At an elevated water temperature, the amount of monomers increases. […] At the same time, the elevated temperature increases the reaction rate of the tanning reaction. […] It is therefore preferred according to the invention when the solution of the self-tanning substance is tempered for about 15 min, but at least about 10 min, before the solution is applied to the human skin.

[2] = over the entire pH range; cited from earlier work

Row | Compound | more active DHA monomers present than in DHA solutions at 20° C. [1] | antioxidative activity relative to the investigated structures [2]
1 | O=C(CO)CO [DHA, 1,3-dihydroxyacetone] | up to 30% | –
2 | O=c1c(O)c(-c2ccc(O)c(O)c2)oc2cc(O)cc(O)c12 [quercetin, 3,3′,4′,5,7-pentahydroxyflavone] | – | highest activity of the investigated structures
